Values after ≈ are worked out from the molar mass of the structure shown. Read-outs that look alike come from different tables or passages of the source.
What was measured:
Type in all cases: cell-based
Enterococcus faecalis = assay: Susceptibility testing, NCCLS microdilution MIC; conditions: for MIC: Enterococcus faecalis
Haemophilus influenzae = assay: Susceptibility testing, NCCLS microdilution MIC; conditions: for MIC: Haemophilus influenzae
Bacteroides fragilis = assay: Susceptibility testing, NCCLS microdilution MIC (anaerobe); conditions: for MIC: Bacteroides fragilis
Staphylococcus aureus = assay: Susceptibility testing, NCCLS microdilution MIC; conditions: ATCC25923, S. aureus ATCC 25923, Example A′, read-out: MIC S. aureus
[1] = Example A′, strain ATCC29212, 24 h at 35° C., read-out: MIC against Enterococcus faecalis strain ATCC29212
[2] = ATCC31517, Example A′, strain ATCC 31517, 24 h at 35° C., read-out: MIC against H. influenzae strain ATCC 31517
[3] = ATCC25285, B. fragilis ATCC 25285, NCCLS microdilution, anaerobe, read-out: MIC B. fragilis
[4] = Example A, strain ATCC25285, anaerobe, 35° C. for 46-48 h, read-out: MIC against Bacteroides fragilis strain ATCC25285
[5] = ATCC29212, E. faecalis ATCC 29212, NCCLS microdilution, read-out: MIC E. faecalis
[6] = Example A, strain ATCC29212, 16-20 h at 35° C., read-out: MIC against Enterococcus faecalis strain ATCC29212
[7] = ATCC31517, Example A, strain ATCC 31517, 16-20 h at 35° C., read-out: MIC against H. influenzae strain ATCC 31517
[8] = ATCC31517, H. influenzae ATCC 31517, NCCLS microdilution, read-out: MIC H. influenzae

| SMILES | MIC (Enterococcus faecalis; [1]) [µg/mL] | MIC (Haemophilus influenzae; [2]) [µg/mL] | MIC (Bacteroides fragilis; [3]) [µg/mL] | MIC (Bacteroides fragilis; [4]) [µg/mL] | MIC (Enterococcus faecalis; [5]) [µg/mL] | MIC (Enterococcus faecalis; [6]) [µg/mL] | MIC (Haemophilus influenzae; [8]) [µg/mL] | other results |
| --- | --- | --- | --- | --- | --- | --- | --- | --- |
| CS[C@H]1O[C@H]([C@H](NC(=O)[C@@H]2C[C@@H](CCCc3ccncc3)CN2)C(C)C)[C@H](O)[C@H](O)[C@H]1O (stereo in doubt) [Example 3, 4-(3-Pyridin-4-yl-propyl)-pyrrolidine-2-carboxylic acid [2-methyl-1-(3,4,5-trihydroxy-6-methylsulfanyl-tetrahydro-pyran-2-yl)-propyl]-amide] | ≤ 0.125 | ≥ 0.5 |  |  |  |  |  |  |
| CS[C@H]1O[C@H]([C@H](NC(=O)[C@@H]2C[C@H](SCCC(F)(F)F)CN2)[C@@H](C)O)[C@H](O)[C@H](O)[C@H]1O [Example 11, 4-(3,3,3-Trifluoro-propylsulfanyl)-pyrrolidine-2-carboxylic acid [2-hydroxy-1-(3,4,5-trihydroxy-6-methylsulfanyl-tetrahydro-pyran-2-yl)-propyl]-amide] | ≤ 0.125 | ≥ 0.5 |  |  |  |  |  |  |
| CS[C@H]1O[C@H]([C@H](NC(=O)[C@@H]2C[C@@H](C/C=C/c3ccncc3)CN2)C(C)C)[C@H](O)[C@H](O)[C@H]1O (stereo in doubt) [Example 2, 4-(3-Pyridin-4-yl-allyl)-pyrrolidine-2-carboxylic acid [2-methyl-1-(3,4,5-trihydroxy-6-methylsulfanyl-tetrahydro-pyran-2-yl)-propyl]-amide] |  | ≥ 0.5 |  |  |  |  |  |  |
| CS[C@H]1O[C@H]([C@H](NC(=O)[C@@H]2C[C@H](Sc3ccc(F)cc3)CN2)[C@@H](C)O)[C@H](O)[C@H](O)[C@H]1O (stereo in doubt) [Example 10, 4-(4-Fluoro-phenylsulfanyl)-pyrrolidine-2-carboxylic acid [2-hydroxy-1-(3,4,5-trihydroxy-6-methylsulfanyl-tetrahydro-pyran-2-yl)-propyl]-amide] | ≤ 0.125 | ≥ 0.5 |  |  |  |  |  |  |
| CCC[C@@H]1C[C@@H](C(=O)N[C@@H]([C@H]2O[C@H](SC)[C@H](O)[C@@H](O)[C@H]2O)[C@H](C)Cl)N(C)C1 [clindamycin, reference compound] | > 8 | 8 (≈ 18.8 µM) | 2 (≈ 4.71 µM) | 2 (≈ 4.71 µM) | > 8 | > 8 | 8 (≈ 18.8 µM) | MIC B. fragilis (Bacteroides fragilis; B. fragilis ATCC 25285, Example A′): 2 µg/mL (≈ 4.71 µM); MIC (Staphylococcus aureus): 0.125 µg/mL (≈ 0.294 µM); MIC E. faecalis (Enterococcus faecalis; E. faecalis ATCC 29212, Example A′): >8 µg/mL; MIC H. influenzae (Haemophilus influenzae; H. influenzae ATCC 31517, Example A′): 8 µg/mL (≈ 18.8 µM); MIC (Haemophilus influenzae; [7]): 8 µg/mL (≈ 18.8 µM) |
| CS[C@H]1O[C@H]([C@H](NC(=O)[C@@H]2C[C@@H](CC=C(F)F)CN2)C(C)C)[C@H](O)[C@H](O)[C@H]1O [Example 1, 4-(3,3-difluoroprop-2-ene)-pyrrolidine-2-carboxylic acid [2-methyl-1-(3,4,5-trihydroxy-6-methylsulfanyl-tetrahydro-pyran-2-yl)-propyl]-amide] |  | ≥ 0.5 |  |  |  |  |  |  |
| CCCCS[C@@H]1CN[C@H](C(=O)N[C@@H]([C@H]2O[C@H](SC)[C@H](O)[C@@H](O)[C@H]2O)[C@@H](C)O)C1 (stereo in doubt) [Example 4, 4-Butylsulfanyl-pyrrolidine-2-carboxylic acid [2-hydroxy-1-(3,4,5-trihydroxy-6-methylsulfanyl-tetrahydro-pyran-2-yl)-propyl]-amide] | ≤ 0.125 | ≥ 0.5 |  |  |  |  |  |  |
| CCCCC1CCN[C@H](C(=O)N[C@@H]([C@H]2O[C@H](SC)[C@H](O)[C@@H](O)[C@H]2O)[C@H](C)Cl)CC1 (stereo partly drawn) [Example 144, 5-Butyl-azepane-2-carboxylic acid [2-chloro-1-(3,4,5-trihydroxy-6-methylsulfanyl-tetrahydro-pyran-2-yl)-propyl]-amide] |  |  | 0.125 (≈ 0.276 µM) | ≤ 0.5 | 0.03 (≈ 0.0662 µM) | ≤ 0.125 | 0.5 (≈ 1.1 µM) | MIC (Haemophilus influenzae; [7]): 0.5 µg/mL (≈ 1.1 µM) |
| CCCCCC1CCN[C@H](C(=O)N[C@@H]([C@H]2O[C@H](SC)[C@H](O)[C@@H](O)[C@H]2O)[C@H](C)Cl)CC1 (stereo partly drawn) [Example 145, 5-Pentyl-azepane-2-carboxylic acid [2-chloro-1-(3,4,5-trihydroxy-6-methylsulfanyl-tetrahydro-pyran-2-yl)-propyl]-amide] |  |  | 0.5 (≈ 1.07 µM) | ≤ 0.5 | 0.125 (≈ 0.268 µM) | ≤ 0.125 | 0.5 (≈ 1.07 µM) | MIC (Haemophilus influenzae; [7]): 0.5 µg/mL (≈ 1.07 µM) |
| CS[C@H]1O[C@H]([C@H](NC(=O)[C@@H]2C[C@H](SCCC(C)C)CN2)[C@@H](C)O)[C@H](O)[C@H](O)[C@H]1O (stereo in doubt) [Example 12, 4-(3-Methyl-butylsulfanyl)-pyrrolidine-2-carboxylic acid [2-hydroxy-1-(3,4,5-trihydroxy-6-methylsulfanyl-tetrahydro-pyran-2-yl)-propyl]-amide] |  | ≥ 0.5 |  |  |  |  |  |  |
| CCS[C@@H]1CN[C@H](C(=O)N[C@@H]([C@H]2O[C@H](SC)[C@H](O)[C@@H](O)[C@H]2O)[C@H](C)Cl)C1 (stereo in doubt) [Example 8, 4-Ethylsulfanyl-pyrrolidine-2-carboxylic acid [2-chloro-1-(3,4,5-trihydroxy-6-methylsulfanyl-tetrahydro-pyran-2-yl)-propyl]-amide] | ≤ 0.125 | ≥ 0.5 |  |  |  |  |  |  |
| CS[C@H]1OC([C@H](NC(=O)[C@@H]2C[C@H](CC3CCC3)CCN2)[C@H](C)Cl)[C@H](O)[C@H](O)[C@H]1O (stereo in doubt) [Example 82, 4-Cyclobutylmethyl-piperidine-2-carboxylic acid [2-chloro-1-(3,4,5-trihydroxy-6-methylsulfanyl-tetrahydro-pyran-2-yl)-propyl]-amide] |  |  | 0.25 (≈ 0.554 µM) | ≤ 0.5 | 0.125 (≈ 0.277 µM) | ≤ 0.125 | 2 (≈ 4.43 µM) |  |
| CCOCCC[C@@H]1CCN[C@H](C(=O)N[C@@H]([C@H]2O[C@H](SC)[C@H](O)[C@@H](O)[C@H]2O)[C@H](C)Cl)CC1 [Example 19′, 5-(3-Ethoxy-propyl)-azepane-2-carboxylic acid [2-chloro-1-(3,4,5-trihydroxy-6-methylsulfanyl-tetrahydro-pyran-2-yl)-propyl]-amide] |  |  |  |  |  |  |  | MIC (Bacteroides fragilis; ATCC25285, B. fragilis ATCC 25285, Example A′, read-out: MIC B. fragilis): 8 µg/mL (≈ 16.6 µM); MIC (Staphylococcus aureus): 0.125 µg/mL (≈ 0.259 µM); MIC (Enterococcus faecalis; ATCC29212, E. faecalis ATCC 29212, Example A′, read-out: MIC E. faecalis): 2 µg/mL (≈ 4.14 µM); MIC (Haemophilus influenzae; ATCC31517, H. influenzae ATCC 31517, Example A′, read-out: MIC H. influenzae): 4 µg/mL (≈ 8.28 µM) |
| CCS[C@@H]1CN[C@H](C(=O)N[C@@H]([C@H]2O[C@H](SC)[C@H](O)[C@@H](O)[C@H]2O)[C@@H](C)O)C1 [Example 5, 4-Ethylsulfanyl-pyrrolidine-2-carboxylic acid [2-hydroxy-1-(3,4,5-trihydroxy-6-methylsulfanyl-tetrahydro-pyran-2-yl)-propyl]-amide] | ≤ 0.125 | ≥ 0.5 |  |  |  |  |  |  |
| CS[C@H]1OC([C@H](NC(=O)[C@@H]2C[C@H](CCC3CCC3)CCN2)[C@H](C)Cl)[C@H](O)[C@H](O)[C@H]1O (stereo in doubt) [Example 81, 4-(2-Cyclobutyl-ethyl)-piperidine-2-carboxylic acid [2-chloro-1-(3,4,5-trihydroxy-6-methylsulfanyl-tetrahydro-pyran-2-yl)-propyl]-amide] |  |  | 0.125 (≈ 0.269 µM) | ≤ 0.5 | 0.03 (≈ 0.0645 µM) | ≤ 0.125 | 2 (≈ 4.3 µM) |  |
| CCCC1CCN[C@H](C(=O)N[C@@H]([C@H]2O[C@H](SC)[C@H](O)[C@@H](O)[C@H]2O)[C@H](C)Cl)CC1 (stereo partly drawn) [Example 47, 5-Propyl-azepane-2-carboxylic acid [2-chloro-1-(3,4,5-trihydroxy-6-methylsulfanyl-tetrahydro-pyran-2-yl)-propyl]-amide] |  |  | 0.125 (≈ 0.285 µM) | ≤ 0.5 | 0.125 (≈ 0.285 µM) | ≤ 0.125 | 0.5 (≈ 1.14 µM) | MIC (Haemophilus influenzae; [7]): 0.5 µg/mL (≈ 1.14 µM); MIC (Haemophilus influenzae; Example A, strain not stated, 16-20 h at 35° C., read-out: MIC against Haemophilus influenzae): ≥ 4 µg/mL |

Source: patent publication US7361743B2 (Pfizer Inc, priority 2004, dated 2008)
